Data set [1] can be described thus: Body weight and condition of mice in the 22Rv1 xenograft study. The note with it: 22Rv1 study.
The next data set has as its target T1, ELK1 (Homo sapiens, UniProt P19419).
T1 construct: His; made in house; host or cells: baculovirus infected Sf9 cells
The experiment in a line: Surface plasmon resonance, compound binding to immobilized ELK1. The following applies: SPR. In general terms: In SPR one partner is held on a chip, and binding of the other changes the refractive index at the surface.

A short description of data set [2]: Intracellular concentration of compounds by LC-MS/MS (relative stability). It counts as in vitro ADME. The note with it: media concentration of 2 uM compound. As to the method:
The suspended cells were sonicated to cell lysate, and then 1000 μL ethyl acetate was added. The mixture was vortex-mixed for 15 minutes and centrifuged at 14000 rpm at […] for 15 min. 950 uL of the supernatant was transferred to a new 1.7 mL centrifuge tube, and dried under a steam of nitrogen at room temperature. The sample was then reconstituted with 100 μL 40% acetonitrile, and 5 μL was injected into the LC-MS/MS system. Measured concentrations were normalized to cell protein concentrations.

Results on two molecules are retold here after patent publication US11185527B2, “Methods and compositions relating to steroid hormone receptor-dependent cancers” (Wayne State University, priority 2017, dated 2021).

T1 sequence (P19419 whole entry): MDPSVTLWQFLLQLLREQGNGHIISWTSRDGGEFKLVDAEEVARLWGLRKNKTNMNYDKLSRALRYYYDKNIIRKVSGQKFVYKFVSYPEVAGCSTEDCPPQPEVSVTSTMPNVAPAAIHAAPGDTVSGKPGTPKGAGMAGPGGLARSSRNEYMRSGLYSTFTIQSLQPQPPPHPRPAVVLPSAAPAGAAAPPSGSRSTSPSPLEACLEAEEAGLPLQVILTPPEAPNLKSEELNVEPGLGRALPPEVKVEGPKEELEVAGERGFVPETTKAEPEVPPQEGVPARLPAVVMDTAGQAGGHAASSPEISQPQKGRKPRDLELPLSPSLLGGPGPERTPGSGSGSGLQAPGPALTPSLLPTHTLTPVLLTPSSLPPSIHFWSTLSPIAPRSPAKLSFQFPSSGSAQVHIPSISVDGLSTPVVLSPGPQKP

As for `CNC(=O)c1ccc(N2C(=S)N(c3ccc(C#N)c(C(F)(F)F)c3)C(=O)C2(C)C)cc1F` [enzalutamide], the “% body weight lost/gained” value is 0% in data set [1] (Day 0 after tumor implantation); “+3.7%” in data set [1] (Day 6 after tumor implantation); “+5.5%” in data set [1] (Day 11 after tumor implantation); “+3.7%” in data set [1] (Day 14 after tumor implantation); “+4.6%” in data set [1] (Day 17 after tumor implantation); “+4.6%” in data set [1] (Day 20 after tumor implantation). The “% body weight lost/gained” value is given as “+4.6%” in data set [1] (Day 24 after tumor implantation) and “+3.7%” in data set [1] (Day 25 after tumor implantation).
With `O=c1cc(-c2cccc(O)c2)oc2cccc(O)c12` [KCI807, 5,3′-dihydroxyflavone], the “binding to immobilized ELK1” value on ELK1 is “did not bind”. Further, the “intracellular concentration between 1h and 6h” value in data set [2] is on record as “unchanged”.
